Patent US9376442B2, “Methylpyrrolopyrimidinecarboxamides” (Takeda GmbH, priority 2009, dated 2016)

Target: T1, PDE5A1 (Homo sapiens, UniProt O76074)
T1 construct: from tissue; host or cells: human platelets from fresh donor blood (10,000 x g supernatant of sonicated lysate)
Experiment: Inhibition of type 5 phosphodiesterase (PDE5) activity, modified SPA test with human platelet lysate
Type: biochemical
Settings: 0.5 μM cGMP, read-out: PDE5A1 inhibitory values [measured as −log IC50 (mol/l)] (converted)
Summary of the method: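 Enzyme source is lysate from human platelets (10,000 g supernatant). Compound preincubated 5 min at 37° C in Tris pH 7.4 containing 1 μM motapizone and 10 nM of a PDE2 inhibitor. Reaction started with 0.5 μM cGMP ([3H] tracer) and run 15 min; SPA read-out, IC50 by non-linear regression.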

SMILES | IC50
COc1cc(OCC2CC2)c(-c2ncnc3c(C(=O)NC4CCN(C(=O)[C@H](C)O)CC4)c(C)[nH]c23)cc1F [Example F84, 4-[2-(Cyclopropylmethoxy)-5-fluoro-4-methoxyphenyl]-N-{1-[(2S)-2-hydroxypropanoyl]piperidin-4-yl}-6-methyl-5H-pyrrolo[3,2-d]pyrimidine-7-carboxamide] | < 1 nM
Cc1[nH]c2c(-c3c(OCC4CC4)ccc4c3OCO4)ncnc2c1C(=O)NC1CCN(C(=O)[C@H](C)O)CC1 [Example F2, 4-[5-(Cyclopropylmethoxy)-1,3-benzodioxol-4-yl]-N-{1-[(2S)-2-hydroxypropanoyl]piperidin-4-yl}-6-methyl-5H-pyrrolo[3,2-d]pyrimidine-7-carboxamide] | < 1 nM
COCC(=O)N1CC[C@@H](NC(=O)c2c(C)[nH]c3c(-c4c(OCC5CC5)ccc5c4OCO5)ncnc23)C1 [Example E15, 4-[5-(Cyclopropylmethoxy)-1,3-benzodioxol-4-yl]-N-[(3R)-1-(methoxyacetyl)pyrrolidin-3-yl]-6-methyl-5H-pyrrolo[3,2-d]pyrimidine-7-carboxamide] | < 1 nM
CC(=O)c1ccc(OCC2CC2)c(-c2ncnc3c(C(=O)NC4CCN(C(=O)CO)CC4)c(C)[nH]c23)c1 [Example F102, 4-[5-Acetyl-2-(cyclopropylmethoxy)phenyl]-N-[1-(hydroxyacetyl)piperidin-4-yl]-6-methyl-5H-pyrrolo[3,2-d]pyrimidine-7-carboxamide] | < 1 nM
COc1cc(OCC2CC2)c(-c2nc(C)nc3c(C(=O)NC4CCN(C(=O)[C@H](C)O)CC4)c(C)[nH]c23)cc1F [Example F108, 4-[2-(Cyclopropylmethoxy)-5-fluoro-4-methoxyphenyl]-N-{1-[(2S)-2-hydroxypropanoyl]piperidin-4-yl}-2,6-dimethyl-5H-pyrrolo[3,2-d]pyrimidine-7-carboxamide] | < 1 nM
Cc1[nH]c2c(-c3cc(F)ccc3OCC3CC3)ncnc2c1C(=O)N[C@@H]1CCN(C(=O)[C@H](C)O)C1 [Example F29, 4-[2-(Cyclopropylmethoxy)-5-fluorophenyl]-N-{(3R)-1-[(2S)-2-hydroxypropanoyl]pyrrolidin-3-yl}-6-methyl-5H-pyrrolo[3,2-d]pyrimidine-7-carboxamide] | 1 to 10 nM
COc1cc(OCC2CC2)c(-c2ncnc3c(C(=O)N[C@@H]4CN(C(C)=O)C[C@H]4O)c(C)[nH]c23)cc1F (relative stereo) [Example E189, N-[(3R*,4R*)-1-Acetyl-4-hydroxypyrrolidin-3-yl]-4-[2-(cyclopropylmethoxy)-5-fluoro-4-methoxyphenyl]-6-methyl-5H-pyrrolo[3,2-d]pyrimidine-7-carboxamide] | < 1 nM
COCC(=O)N1CCC(NC(=O)c2c(C)[nH]c3c(-c4cc(C(C)C)ccc4OCC4CC4)ncnc23)CC1 [Example E158, 4-[2-(Cyclopropylmethoxy)-5-(propan-2-yl)phenyl]-N-[1-(methoxyacetyl)piperidin-4-yl]-6-methyl-5H-pyrrolo[3,2-d]pyrimidine-7-carboxamide] | 1 to 10 nM
COCC(=O)N1C[C@@H](O)[C@H](NC(=O)c2c(C)[nH]c3c(-c4cc(OC)c(F)cc4OCC4CC4)ncnc23)C1 (relative stereo) [Example E185, 4-[2-(Cyclopropylmethoxy)-4-fluoro-5-methoxyphenyl]-N-[(3R*,4R*)-4-hydroxy-1-(methoxyacetyl)pyrrolidin-3-yl]-6-methyl-5H-pyrrolo[3,2-d]pyrimidine-7-carboxamide] | < 1 nM
Cc1cc(-c2ncnc3c(C(=O)N[C@H]4CC[C@H](NC(=O)CO)CC4)c(C)[nH]c23)c(OCC2CC2)cc1F [Example F77, 4-[2-(Cyclopropylmethoxy)-4-fluoro-5-methylphenyl]-N-{trans-4-[(hydroxyacetyl)amino]cyclohexyl}-6-methyl-5H-pyrrolo[3,2-d]pyrimidine-7-carboxamide] | < 1 nM
Cc1ccc(OCC2CC2)c(-c2nc(C)nc3c(C(=O)NC4CCN(C(=O)[C@H](C)O)CC4)c(C)[nH]c23)c1 [Example F107, 4-[2-(Cyclopropylmethoxy)-5-methylphenyl]-N-{1-[(2S)-2-hydroxypropanoyl]piperidin-4-yl}-2,6-dimethyl-5H-pyrrolo[3,2-d]pyrimidine-7-carboxamide] | < 1 nM
CC(=O)N1CC[C@H](NC(=O)c2c(C)[nH]c3c(-c4ccc(F)cc4OCC4CC4)ncnc23)[C@@H](O)C1 (relative stereo) [Example E34, N-[(3S*,4S*)-1-acetyl-3-hydroxypiperidin-4-yl]-4-[2-(cyclopropylmethoxy)-4-fluorophenyl]-6-methyl-5H-pyrrolo[3,2-d]pyrimidine-7-carboxamide] | < 1 nM
COc1cc(-c2ncnc3c(C(=O)NC4CCN(C(=O)CO)CC4)c(C)[nH]c23)c(OCC2CC2)cc1F [Example F65, 4-[2-(Cyclopropylmethoxy)-4-fluoro-5-methoxyphenyl]-N-(1-glycoloylpiperidin-4-yl)-6-methyl-5H-pyrrolo[3,2-d]pyrimidine-7-carboxamide] | < 1 nM
CCC(=O)N[C@H]1CC[C@H](NC(=O)c2c(C)[nH]c3c(-c4cc(C)c(F)cc4OCC4CC4)ncnc23)CC1 [Example E123, 4-[2-(Cyclopropylmethoxy)-4-fluoro-5-methylphenyl]-6-methyl-N-[trans-4-(propanoylamino)cyclohexyl]-5H-pyrrolo[3,2-d]pyrimidine-7-carboxamide] | < 1 nM
COCC(=O)N[C@H]1CC[C@@H](NC(=O)c2c(C)[nH]c3c(-c4cc(OC)c(F)cc4OCC4CC4)ncnc23)CC1 [Example E112, 4-[2-(Cyclopropylmethoxy)-4-fluoro-5-methoxyphenyl]-N-{cis-4-[(methoxyacetyl)amino]cyclohexyl}-6-methyl-5H-pyrrolo[3,2-d]pyrimidine-7-carboxamide] | < 1 nM
CCOC(=O)N[C@H]1CC[C@@H](NC(=O)c2c(C)[nH]c3c(-c4cc(F)c(OC)cc4OCC4CC4)ncnc23)CC1 [Example E141, Ethyl {cis-4-[({4-[2-(cyclopropylmethoxy)-5-fluoro-4-methoxyphenyl]-6-methyl-5H-pyrrolo[3,2-d]pyrimidin-7-yl}carbonyl)amino]cyclohexyl}carbamate] | < 1 nM
COc1ccc(OCC2CC2)c(-c2ncnc3c(C(=O)N[C@@H]4CN(C(C)=O)C[C@H]4O)c(C)[nH]c23)c1 (relative stereo) [Example E192, N-[(3R*,4R*)-1-Acetyl-4-hydroxypyrrolidin-3-yl]-4-[2-(cyclopropylmethoxy)-5-methoxyphenyl]-6-methyl-5H-pyrrolo[3,2-d]pyrimidine-7-carboxamide] | 1 to 10 nM
CCC(=O)N1CC[C@@H](NC(=O)c2c(C)[nH]c3c(-c4cc(F)ccc4OCC4CC4)ncnc23)[C@H](O)C1 (relative stereo) [Example E50, 4-[2-(Cyclopropylmethoxy)-5-fluorophenyl]-N-[(3R*,4R*)-3-hydroxy-1-propanoylpiperidin-4-yl]-6-methyl-5H-pyrrolo[3,2-d]pyrimidine-7-carboxamide] | 1 to 10 nM
COc1ccc(-c2ncnc3c(C(=O)N[C@@H]4CCN(C(=O)[C@H](C)O)C4)c(C)[nH]c23)c(OCC2CC2)c1 [Example F38, 4-[2-(Cyclopropylmethoxy)-4-methoxyphenyl]-N-{(3R)-1-[(2S)-2-hydroxypropanoyl]pyrrolidin-3-yl}-6-methyl-5H-pyrrolo[3,2-d]pyrimidine-7-carboxamide] | < 1 nM
COCC(=O)N[C@H]1CC[C@H](NC(=O)c2c(C)[nH]c3c(-c4cc(F)c(OC)cc4OCC4CC4)ncnc23)CC1 [Example E137, 4-[2-(Cyclopropylmethoxy)-5-fluoro-4-methoxyphenyl]-N-{trans-4-[(methoxyacetyl)amino]cyclohexyl}-6-methyl-5H-pyrrolo[3,2-d]pyrimidine-7-carboxamide] | < 1 nM
COCC(=O)N1CCC(NC(=O)c2c(C)[nH]c3c(-c4c(OCC5CC5)ccc5c4OCO5)ncnc23)CC1 [Example E3, 4-[5-(Cyclopropylmethoxy)-1,3-benzodioxol-4-yl]-N-[1-(methoxyacetyl)piperidin-4-yl]-6-methyl-5H-pyrrolo[3,2-d]pyrimidine-7-carboxamide] | < 1 nM
CCc1ccc(OCC2CC2)c(-c2ncnc3c(C(=O)NC4CCN(C(=O)[C@H](C)O)CC4)c(C)[nH]c23)c1 [Example F92, 4-[2-(Cyclopropylmethoxy)-5-ethylphenyl]-N-{1-[(2S)-2-hydroxypropanoyl]piperidin-4-yl}-6-methyl-5H-pyrrolo[3,2-d]pyrimidine-7-carboxamide] | < 1 nM
CCC(=O)N1CCC(NC(=O)c2c(C)[nH]c3c(-c4cc(OC)c(F)cc4OCC4CC4)nc(C)nc23)CC1 [Example E174, 4-[2-(Cyclopropylmethoxy)-4-fluoro-5-methoxyphenyl]-2,6-dimethyl-N-(1-propanoylpiperidin-4-yl)-5H-pyrrolo[3,2-d]pyrimidine-7-carboxamide] | < 1 nM
Cc1[nH]c2c(-c3ccc(F)cc3OCC3CC3)ncnc2c1C(=O)N[C@H]1CC[C@@H](NC(=O)[C@H](C)O)CC1 [Example F16, 4-[2-(Cyclopropylmethoxy)-4-fluorophenyl]-N-(cis-4-{[(2S)-2-hydroxypropanoyl]amino}cyclohexyl)-6-methyl-5H-pyrrolo[3,2-d]pyrimidine-7-carboxamide] | < 1 nM
Cc1[nH]c2c(-c3c(OCC4CC4)ccc4c3OCO4)ncnc2c1C(=O)N[C@H]1CC[C@@H](NC(=O)[C@H](C)O)CC1 [Example F6, 4-[5-(Cyclopropylmethoxy)-1,3-benzodioxol-4-yl]-N-(cis-4-{[(2S)-2-hydroxypropanoyl]amino}cyclohexyl)-6-methyl-5H-pyrrolo[3,2-d]pyrimidine-7-carboxamide] | < 1 nM
Cc1cc(-c2ncnc3c(C(=O)N[C@H]4CC[C@@H](NC(=O)[C@H](C)O)CC4)c(C)[nH]c23)c(OCC2CC2)cc1F [Example F80, 4-[2-(Cyclopropylmethoxy)-4-fluoro-5-methylphenyl]-N-(cis-4-{[(2S)-2-hydroxypropanoyl]amino}cyclohexyl)-6-methyl-5H-pyrrolo[3,2-d]pyrimidine-7-carboxamide] | < 1 nM
